Results as given in US10905680B2, “Methods of treatment for cholestatic and fibrotic diseases” (Genfit, priority 2016, dated 2021).

Key:
HSC = assay: Toxicity assays in HSC; format: cell-based, human; settings: data not shown
[1] = test system: Normal Human Lung Fibroblasts (NHLF); assay: TGFβ1-induced expression of α-SMA protein in human lung fibroblasts (ELISA); format: cell-based; settings: concentration of 1 μM; TGFβ1 1 ng/ml, 48 hours
Procedure: NTZ (A) or TZ (B) was added to serum-deprived lung fibroblasts (NHLF) 1 hour before the activation with TGFβ1 (1 ng/ml). After 48 hours of incubation, the expression of α-SMA was measured by ELISA. The obtained values were transformed into percentage inhibition over TGFβ1 control. Data are presented as mean (triplicates)±standard deviation (SD). Statistical analyses were performed by one-way ANOVA followed by Bonferroni post-hoc tests, using Sigma Plot 11.0 software. [*: p<0.05; **: p<0.01; ***: p<0.001 (comparison versus TGFβ1 1 ng/mL group)].
The Normal Human Lung Fibroblasts (NHLF) (Lonza) were cultured in Fibroblast Basal Medium (FBM) (Lonza cat # CC-3131) that was supplemented with FGM-2 SingleQuots™ Kit (Lonza cat # CC-3132). The complete medium contains 2% fetal bovine serum. For the activation experiments with TGFβ1, the NHLF were plated at a density of 5×10^3 cells per well in 96-well plates. The next day, cell-culture medium was removed, and cells were washed with PBS (Invitrogen cat #14190). NHLF were deprived for 24 hours in serum-free, insulin-free and rhFGF-B-free medium. […]
The level of α-SMA was measured using a Sandwich ELISA. […]

[2] = test system: human renal interstitial fibroblasts (HRIF); assay: TGFβ1-induced expression of α-SMA protein in human renal fibroblasts (ELISA); format: cell-based; settings: TGFβ1 3 ng/ml, 48 hours
Procedure: Serum-deprived Human Renal Interstitial Fibroblasts (HRIF) were preincubated for 1 hour with NTZ (A) or TZ (B) before the activation with the profibrogenic cytokine TGFβ1 (3 ng/ml). After 48 hours of incubation, the expression of α-SMA was measured by ELISA. The obtained values were normalized over TGFβ1 control. Data are presented as mean (quadruplicates)±SEM (Standard Error of Mean). […] For the activation experiments with TGFβ1, the HRIF were plated at a density of 6.5×10^3 cells per well in 384-well plates. The next day, cell culture medium was removed, and cells were washed with PBS (Invitrogen cat #14190). HRIF were deprived for 24 hours in serum-free, and FGS-free medium. For the treatments with NTZ or TZ, the serum-deprived HRIF were preincubated for 1 hour with the compounds followed by addition of the profibrogenic stimuli TGFβ1 (PeproTech cat #100-21, 3 ng/mL) in serum-free, -FGS-free medium for an additional 48 hour period. Finally, the cells were washed with PBS (Invitrogen, cat #14190) before the addition of 30 μl of lysis buffer (CelLytic™ MT reagent; Sigma #C3228). Plates were then incubated for 30 min on ice using a plate shaker, and subsequently stored at −20° C. The level of α-SMA was measured using a Sandwich ELISA. Briefly, the wells of an ELISA plate were first coated with the capture antibody (mouse monoclonal anti-ACTA2, Abnova) at 4° C. overnight. […]

Structure (SMILES): O=C(Nc1ncc([N+](=O)[O-])s1)c1ccccc1O [TZ, 2-hydroxy-N-(5-nitro-2-thiazolyl)benzamide]
- toxicity or apoptosis of HSC (HSC): not due to toxicity or apoptosis
- antifibrotic effects (α-SMA) in normal human lung fibroblasts [1]: significant antifibrotic effects
- antifibrotic effects (α-SMA) in TGFβ-activated human renal interstitial fibroblasts [2]: significant and dose-dependent antifibrotic effects
